Series [1] concerns hCoV-229E. Briefly: hCoV-229E CPE assay. Type of series: cell-based. Particulars: Human coronavirus 229E.
For series [2], the system named is SARS CoV-2 (USA_WA1/2020). Briefly: SARS-CoV-2 CPE assay in Vero E6 cells. Format: cell-based. To be noted: Severe acute respiratory syndrome coronavirus 2, Vero C1008, reference compounds in the same assay.
The subject of series [3] is hCoV-OC43. Briefly: HCoV OC43 CPE assay in Huh7 cells. Format: cell-based.
Series [4] is described as follows: Cytotoxicity in parallel with OC43 CPE assay, without virus. Particulars: human.
Series [5] has as its system Huh7 cells. The series is described as above. Particulars: Huh7 cells; no virus; reference compounds.
In series [6] the test system is DENV type 2 Rluc-NGC strain. Briefly: microbe, parasite or virus in culture. To be noted: Dengue virus, Vero. Type of series: cell-based.
Series [7] relates to YFV 17D. Briefly: microbe, parasite or virus in culture. Format: cell-based. Particulars: Yellow fever virus.
Series [8] in a line: in vitro.
The mark [9] stands for this setting: Betacoronavirus 1, OC43, Huh-7, read-out: Average Inhibition (%).

pEC50, pIC50: −log10 of the molar value. Read-outs that look alike come from different tables or passages of the source.

For orientation: pIC50 means −log10 of the IC50, conventionally taken in molar units. In the case of `CCN(CC)CCCC(C)Nc1ccnc2cc(Cl)ccc12` (stereo not drawn) [Chloroquine], the negative logarithm of the IC50 (pIC50) in series [1] (MRCS cells, data not shown, read-out: IC50) was 5.66.
`CCN(CCO)CCCC(C)Nc1ccnc2cc(Cl)ccc12` (stereo not drawn) [Hydroxychloroquine] gave a negative logarithm of the IC50 (pIC50) in series [2] of 5.72.
The term pEC50 denotes −log10 of the EC50, conventionally taken in molar units. Broadly, the inhibition is the change of the read-out against control, counted positive when it falls. As a reminder, the viability is a read-out of living cells in per cent, often relative to untreated cells. Regarding `CCC(CC)COC(=O)[C@H](C)N[P@](=O)(OC[C@H]1O[C@@](C#N)(c2ccc3c(N)ncnn23)[C@H](O)[C@@H]1O)Oc1ccccc1` [Remdesivir], the pIC50 in series [2] is 5.41. The same compound had a pEC50 in series [3] (Betacoronavirus 1, OC43, Huh-7) of 7.38. Further, in series [3] (setting [9]), the inhibition at 0.000457 µM is -4.12%, the inhibition at 0.001372 µM is -0.1%, the inhibition at 0.004115 µM was 1.54% and the inhibition at 0.01235 µM stood at 8.25%. Also, in series [3] (setting [9]), the inhibition at 0.03704 µM came out at 30.4%, the inhibition at 0.11111 µM is 83.4%, the inhibition at 0.33333 µM stood at 79.5% and the inhibition at 1 µM came to 80.3%. The pIC50 in series [1] (72 h) is 7.64. Also, in series [4], the viability at 7 days, 0.046 µM worked out at 100%; the viability at 7 days, 0.137 µM is 102%; the viability at 7 days, 0.412 µM worked out at 104%; the viability at 7 days, 1.235 µM was determined as 102%. Further, in series [4], the viability at 7 days, 3.704 µM was found to be 86.9%; the viability at 7 days, 11.11 µM was determined as 56.8%; the viability at 7 days, 33.33 µM came out at 36.9%; the viability at 7 days, 100 µM came to 21.8%. For the same compound, the CC50 in series [5] was found to be 17.2 µM.
For `NC(=O)c1ncn([C@@H]2O[C@H](CO)[C@@H](O)[C@H]2O)n1` [Ribavirin], in series [6], the negative logarithm of the EC50 (pEC50) is 4.49, the inhibition at 0.015 µM worked out at 14.9%, the inhibition at 0.046 µM is 14.9% and the inhibition at 0.137 µM amounted to 10.8%. Further, in series [6], the inhibition at 0.412 µM turned out to be 13.5%, the inhibition at 1.235 µM came to 31.1%, the inhibition at 3.704 µM is 20.3% and the inhibition at 11.111 µM is 24.3%. In addition, in series [6], the inhibition at 33.333 µM is 60.8%, the inhibition at 100 µM was found to be 98.7% and the inhibition at 300 µM was determined as 100%. In addition, the negative logarithm of the EC50 (pEC50) in series [7] (read-out: EC50 for YFV, FIG. 4B as described in Examples 3 & 4) is 3.65. Further, the pEC50 in series [7] (read-out: EC50 for YFV, FIG. 4B legend) is 3.87. Moreover, in series [8], the CC50 was above 699 µM.

These data come from patent US20230137927A1, “INTERFERON TAU AS ANTIVIRAL THERAPY” (priority 2020, published 2023).
